Experiment: in vivo
Set-up: species or system cynomolgus monkeys
Conditions: cynomolgus monkey
Protocol: In this trial, 24 cynomolgus monkeys (12 of each sex) were provided by Hainan Jingang Biotechnology Co., Ltd. Each animal was identified using a unique code on the chest and cage box, and its health status was confirmed by the veterinary team of WuXi AppTec Suzhou Drug Development Co., Ltd. before use. Temperature and humidity were monitored in the animal room, with data recorded daily to ensure that the relative humidity was maintained at 40%–70% and the temperature stayed between 18–26°C. The ventilation was set to 10–20 exchanges per hour, and a 12-hour alternating light-dark cycle was adopted. Regular growth feed was provided daily, and the animals had constant access to water. Additionally, the test animals were provided with fruit daily to meet their nutritional needs. The 24 cynomolgus monkeys were randomly divided into four groups, with three monkeys of each sex per group. Animals in group 1 received a single intravenous bolus of 0.1 mg/kg BGM0504, while groups 2, 3, and 4 received a single subcutaneous injection of 0.2, 1, and 5 mg/kg BGM0504 in 20 mM citrate buffer solution (pH=7.0±0.2), respectively. Blood samples for pharmacokinetic (PK) analysis were collected at specific time points (0.5, 1, 4, 6, 8, 12, 24, 48, 72, 96, 120, 168, 240, and 312 hours) before and after dosing. At the same time, blood glucose levels were measured at 0.5, 4, 24, 48, and 72 hours after dosing. The collected blood samples were transferred to labeled commercial tubes containing K2-EDTA (0.85–1.15 mg), gently inverted several times to ensure mixing, and immediately placed on wet ice. Within 60 minutes of blood collection, the samples were centrifuged for 10 minutes at 3200×g at 2°–8°C. Plasma was divided into two aliquots (one for analysis and one for later use), transferred to labeled polypropylene tubes, immediately snap-frozen vertically in dry ice, and stored in an ultra-low temperature freezer at -60°C or lower until transported to the Drug Evaluation Department of WuXi AppTec Shanghai Drug Development Co., Ltd. for LC-MS/MS analysis.

Compound: CC[C@H](C)[C@H](NC(=O)[C@H](CC(C)C)NC(=O)[C@H](Cc1c[nH]c2ccccc12)NC(=O)[C@H](CCC(N)=O)NC(=O)[C@@H](NC(=O)[C@H](Cc1ccccc1)NC(=O)[C@H](C)NC(=O)[C@H](CCCCN)NC(=O)[C@H](CCC(N)=O)NC(=O)[C@H](C)NC(=O)[C@@H](NC(=O)[C@H](CCCCN)NC(=O)[C@H](CC(=O)O)NC(=O)[C@H](CC(C)C)NC(=O)C(C)(C)NC(=O)[C@@H](NC(=O)[C@H](CO)NC(=O)[C@H](Cc1ccc(O)cc1)NC(=O)[C@H](CC(=O)O)NC(=O)[C@H](CO)NC(=O)[C@@H](NC(=O)[C@H](Cc1ccccc1)NC(=O)[C@@H](NC(=O)CNC(=O)[C@H](CCC(=O)O)NC(=O)C(C)(C)NC(=O)[C@@H](N)Cc1ccc(O)cc1)[C@@H](C)O)[C@@H](C)O)[C@@H](C)CC)[C@@H](C)CC)C(C)C)C(=O)N[C@@H](C)C(=O)NCC(=O)NCC(=O)N1CCC[C@H]1C(=O)N[C@@H](CO)C(=O)N[C@@H](CO)C(=O)NCC(=O)N[C@@H](C)C(=O)N1CCC[C@H]1C(=O)N1CCC[C@H]1C(=O)N1CCC[C@H]1C(=O)N[C@@H](CO)C(=O)N[C@@H](CCCCNC(=O)COCCOCCOCCNC(=O)COCCOCCOCCNC(=O)CC[C@H](NC(=O)CCCCCCCCCCCCCCCCCCC(=O)O)C(=O)O)C(N)=O [BGM0504]
- AUC(0-inf) (both sexes, iv, 0.1 mg/kg): 81.1 µg·h/mL
- AUC(0-t) (both sexes, iv, 0.1 mg/kg): 80.4 µg·h/mL
- C0 (both sexes, iv, 0.1 mg/kg): 2860 ± 261 ng/mL
- Vd (both sexes, iv, 0.1 mg/kg): 0.0608 ± 0.005 L/kg
- clearance (both sexes, iv, 0.1 mg/kg): 1.24 ± 0.132 mL/h/kg
- half-life (both sexes, iv, 0.1 mg/kg): 37.9 ± 2.5 h
- AUC(0-inf) (both sexes, sc, 0.2 mg/kg): 113 µg·h/mL
- AUC(0-t) (both sexes, sc, 0.2 mg/kg): 113 µg·h/mL
- Cmax (both sexes, sc, 0.2 mg/kg): 1440 ± 109 ng/mL
- Tmax (both sexes, sc, 0.2 mg/kg): 16 ± 6.2 h
- bioavailability (both sexes, sc, 0.2 mg/kg): 69.7%
- half-life (both sexes, sc, 0.2 mg/kg): 38.7 ± 1.8 h
- AUC(0-inf) (both sexes, sc, 1 mg/kg): 491 µg·h/mL
- AUC(0-t) (both sexes, sc, 1 mg/kg): 488 µg·h/mL
- Cmax (both sexes, sc, 1 mg/kg): 5970 ± 1090 ng/mL
- Tmax (both sexes, sc, 1 mg/kg): 22 ± 14 h
- bioavailability (both sexes, sc, 1 mg/kg): 60.5%
- half-life (both sexes, sc, 1 mg/kg): 41.7 ± 2.9 h
- AUC(0-inf) (both sexes, sc, 5 mg/kg): 2740 µg·h/mL
- AUC(0-t) (both sexes, sc, 5 mg/kg): 2720 µg·h/mL
- Cmax (both sexes, sc, 5 mg/kg): 33500 ng/mL
- Tmax (both sexes, sc, 5 mg/kg): 20 ± 6.2 h
- bioavailability (both sexes, sc, 5 mg/kg): 67.6%
- half-life (both sexes, sc, 5 mg/kg): 43.4 ± 5.9 h
- Tmax: 16 to 22 h
- AUC0-24 (iv, 0.1 mg/kg): 34.6 µg·h/mL
- AUC0–last (as headed in Table 1) (iv, 0.1 mg/kg): 34,600 ± 2470 ng h/mL
- AUC0–∞ (as headed in Table 1) (iv, 0.1 mg/kg): 80,400 ± 7880 ng h/mL
- AUC0-24 (sc, 0.2 mg/kg): 26.1 µg·h/mL
- AUC0–last (as headed in Table 1) (sc, 0.2 mg/kg): 26,100 ± 1740 ng h/mL
- AUC0–∞ (as headed in Table 1) (sc, 0.2 mg/kg): 113,000 ± 7940 ng h/mL
- AUC0-24 (sc, 1 mg/kg): 109 µg·h/mL
- AUC0–last (as headed in Table 1) (sc, 1 mg/kg): 109,000 ± 21,900 ng h/mL
- AUC0–∞ (as headed in Table 1) (sc, 1 mg/kg): 488,000 ± 51,200 ng h/mL
- AUC0-24 (sc, 5 mg/kg): 603 µg·h/mL
- AUC0–last (as headed in Table 1) (sc, 5 mg/kg): 603,000 ± 94,200 ng h/mL
- AUC0–∞ (as headed in Table 1) (sc, 5 mg/kg): 2,720,000 ± 246,000 ng h/mL
